Columns and labels:
Assay in all cases: KINOMEscan competition binding
Conditions in all cases: compound 10.0 µM
[1] = biological target: BMPR1A (human) (UniProt P36894)
[2] = biological target: BMX (human) (UniProt P51813)
[3] = biological target: CAMK2A (human) (UniProt Q9UQM7)
[4] = biological target: CDK11B (human) (UniProt P21127)
[5] = biological target: CDK4 CCND3 (human) (UniProt P11802+P30281)
[6] = system: EGFR (human), P00533 [T790M]
[7] = biological target: EPHA7 (human) (UniProt Q15375)
Chain of EPHA7 (human) (Q15375 whole entry, looked up): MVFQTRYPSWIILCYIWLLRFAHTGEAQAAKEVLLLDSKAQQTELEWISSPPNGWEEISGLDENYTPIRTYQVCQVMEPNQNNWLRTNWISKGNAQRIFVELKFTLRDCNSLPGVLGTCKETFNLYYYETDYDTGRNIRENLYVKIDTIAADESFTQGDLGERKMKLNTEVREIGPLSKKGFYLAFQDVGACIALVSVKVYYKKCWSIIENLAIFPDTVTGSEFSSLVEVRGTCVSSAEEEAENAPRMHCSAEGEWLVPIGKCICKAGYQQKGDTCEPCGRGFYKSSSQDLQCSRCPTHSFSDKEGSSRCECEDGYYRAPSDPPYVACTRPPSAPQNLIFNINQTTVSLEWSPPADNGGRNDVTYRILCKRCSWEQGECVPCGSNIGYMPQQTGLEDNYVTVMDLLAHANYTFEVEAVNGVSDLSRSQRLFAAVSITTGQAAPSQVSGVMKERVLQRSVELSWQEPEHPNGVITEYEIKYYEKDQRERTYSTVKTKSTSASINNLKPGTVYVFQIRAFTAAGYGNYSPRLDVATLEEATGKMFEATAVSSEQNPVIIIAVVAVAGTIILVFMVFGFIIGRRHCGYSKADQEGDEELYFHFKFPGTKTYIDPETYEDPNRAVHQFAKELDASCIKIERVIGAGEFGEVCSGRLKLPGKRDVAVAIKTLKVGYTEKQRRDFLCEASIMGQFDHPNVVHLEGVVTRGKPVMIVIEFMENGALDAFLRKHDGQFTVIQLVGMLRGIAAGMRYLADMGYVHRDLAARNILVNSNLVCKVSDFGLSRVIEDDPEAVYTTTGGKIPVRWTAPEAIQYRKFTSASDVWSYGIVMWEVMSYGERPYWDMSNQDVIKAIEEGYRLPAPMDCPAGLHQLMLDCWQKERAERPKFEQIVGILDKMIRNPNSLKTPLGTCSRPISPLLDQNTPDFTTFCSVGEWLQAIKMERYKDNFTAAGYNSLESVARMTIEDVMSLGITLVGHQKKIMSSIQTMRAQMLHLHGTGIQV

[8] = biological target: ERN1 (human) (UniProt O75460)
[9] = biological target: FLT3 (human) (UniProt P36888)
[10] = biological target: GRK1 (human) (UniProt Q15835)
[11] = system: KIT (human), P10721 [A829P]
[12] = system: KIT (human), P10721 [D816V]
[13] = system: KIT (human), P10721 [L576P]
[14] = biological target: LCK (human) (UniProt P06239)
[15] = biological target: LYN (human) (UniProt P07948)
[16] = biological target: MAP2K5 (human) (UniProt Q13163)
Chain of MAP2K5 (human) (Q13163 whole entry, looked up): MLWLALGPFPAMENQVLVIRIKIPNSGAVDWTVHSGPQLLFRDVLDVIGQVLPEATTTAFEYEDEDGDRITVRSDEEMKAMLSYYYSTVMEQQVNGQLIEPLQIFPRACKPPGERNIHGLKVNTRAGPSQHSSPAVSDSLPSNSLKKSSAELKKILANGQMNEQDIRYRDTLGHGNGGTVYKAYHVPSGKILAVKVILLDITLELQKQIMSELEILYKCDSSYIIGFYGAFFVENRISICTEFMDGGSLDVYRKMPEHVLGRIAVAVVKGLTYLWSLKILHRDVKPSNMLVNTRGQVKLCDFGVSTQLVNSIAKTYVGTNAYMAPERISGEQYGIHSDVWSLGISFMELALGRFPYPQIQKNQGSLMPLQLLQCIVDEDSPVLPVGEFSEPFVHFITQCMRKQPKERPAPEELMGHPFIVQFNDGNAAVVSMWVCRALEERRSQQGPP

[17] = biological target: MAPK13 (human) (UniProt O15264)
[18] = biological target: MAPKAPK2 (human) (UniProt P49137)
Chain of MAPKAPK2 (human) (P49137 whole entry, looked up): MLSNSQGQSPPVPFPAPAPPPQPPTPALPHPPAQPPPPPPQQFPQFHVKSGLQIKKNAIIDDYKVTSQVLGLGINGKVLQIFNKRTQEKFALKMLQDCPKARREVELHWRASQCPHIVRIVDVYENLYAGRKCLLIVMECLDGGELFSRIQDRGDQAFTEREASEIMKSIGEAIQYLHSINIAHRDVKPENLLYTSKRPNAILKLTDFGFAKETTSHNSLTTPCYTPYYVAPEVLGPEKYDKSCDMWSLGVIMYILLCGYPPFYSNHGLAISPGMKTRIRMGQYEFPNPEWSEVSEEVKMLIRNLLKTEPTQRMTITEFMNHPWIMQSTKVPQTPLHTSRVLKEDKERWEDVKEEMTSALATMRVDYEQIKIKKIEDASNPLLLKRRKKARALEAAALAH

[19] = biological target: MAPKAPK5 (human) (UniProt Q8IW41)
[20] = biological target: MELK (human) (UniProt Q14680)
[21] = system: MET (human), P08581 [M1250T]
[22] = biological target: MINK1 (human) (UniProt Q8N4C8)
[23] = biological target: MYLK4 (human) (UniProt Q86YV6)
[24] = biological target: NEK1 (human) (UniProt Q96PY6)
[25] = biological target: NEK9 (human) (UniProt Q8TD19)
[26] = biological target: PDPK1 (human) (UniProt O15530)
[27] = biological target: PI4KB (human) (UniProt Q9UBF8)
Chain of PI4KB (human) (Q9UBF8 whole entry, looked up): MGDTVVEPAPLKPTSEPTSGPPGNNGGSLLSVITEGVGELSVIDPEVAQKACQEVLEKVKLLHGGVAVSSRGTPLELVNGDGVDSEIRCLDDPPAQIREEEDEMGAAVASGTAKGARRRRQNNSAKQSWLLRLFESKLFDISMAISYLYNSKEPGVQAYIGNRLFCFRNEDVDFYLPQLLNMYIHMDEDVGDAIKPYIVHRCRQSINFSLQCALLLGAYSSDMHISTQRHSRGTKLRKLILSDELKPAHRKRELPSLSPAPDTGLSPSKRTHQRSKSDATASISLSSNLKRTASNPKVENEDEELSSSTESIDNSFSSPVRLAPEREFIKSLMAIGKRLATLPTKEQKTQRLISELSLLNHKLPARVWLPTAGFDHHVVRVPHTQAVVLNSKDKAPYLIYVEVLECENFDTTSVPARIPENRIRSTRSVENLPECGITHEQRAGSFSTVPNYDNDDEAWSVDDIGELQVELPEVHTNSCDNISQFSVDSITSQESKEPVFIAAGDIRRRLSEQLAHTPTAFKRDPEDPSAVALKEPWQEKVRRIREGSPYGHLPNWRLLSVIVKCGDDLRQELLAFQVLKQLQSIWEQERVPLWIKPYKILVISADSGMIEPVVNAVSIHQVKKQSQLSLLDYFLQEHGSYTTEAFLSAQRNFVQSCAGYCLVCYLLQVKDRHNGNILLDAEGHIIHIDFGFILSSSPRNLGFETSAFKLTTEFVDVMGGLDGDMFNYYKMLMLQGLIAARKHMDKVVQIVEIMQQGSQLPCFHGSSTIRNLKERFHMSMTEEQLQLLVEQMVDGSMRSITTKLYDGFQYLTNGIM

[28] = biological target: PIM3 (human) (UniProt Q86V86)
[29] = biological target: PIP4K2C (human) (UniProt Q8TBX8)
[30] = biological target: PIP5K1C (human) (UniProt O60331)
[31] = biological target: PRKAA2 (human) (UniProt P54646)
Chain of PRKAA2 (human) (P54646 whole entry, looked up): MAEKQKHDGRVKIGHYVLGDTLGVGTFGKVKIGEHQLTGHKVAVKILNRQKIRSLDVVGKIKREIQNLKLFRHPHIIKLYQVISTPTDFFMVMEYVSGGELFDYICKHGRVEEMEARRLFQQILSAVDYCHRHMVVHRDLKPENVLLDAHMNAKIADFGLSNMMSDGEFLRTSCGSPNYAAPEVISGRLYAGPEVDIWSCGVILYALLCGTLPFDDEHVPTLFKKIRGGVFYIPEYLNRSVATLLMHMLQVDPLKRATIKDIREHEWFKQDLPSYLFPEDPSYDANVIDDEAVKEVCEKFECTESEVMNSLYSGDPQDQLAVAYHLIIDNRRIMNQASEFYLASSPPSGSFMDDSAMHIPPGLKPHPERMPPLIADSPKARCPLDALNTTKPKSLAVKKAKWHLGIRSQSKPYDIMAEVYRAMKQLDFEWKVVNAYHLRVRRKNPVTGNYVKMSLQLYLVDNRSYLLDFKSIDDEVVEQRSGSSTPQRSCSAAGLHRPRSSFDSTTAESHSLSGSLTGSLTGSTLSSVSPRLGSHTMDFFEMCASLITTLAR

[32] = biological target: PRKCE (human) (UniProt Q02156)
[33] = biological target: PRPF4B (human) (UniProt Q13523)
[34] = biological target: RET (human) (UniProt P07949)
[35] = biological target: SRPK3 (human) (UniProt Q9UPE1)
[36] = biological target: STK4 (human) (UniProt Q13043)
[37] = biological target: TEC (human) (UniProt P42680)
[38] = biological target: TNIK (human) (UniProt Q9UKE5)
[39] = biological target: ULK1 (human) (UniProt O75385)
[40] = biological target: VRK2 (human) (UniProt Q86Y07)
Chain of VRK2 (human) (Q86Y07 whole entry, looked up): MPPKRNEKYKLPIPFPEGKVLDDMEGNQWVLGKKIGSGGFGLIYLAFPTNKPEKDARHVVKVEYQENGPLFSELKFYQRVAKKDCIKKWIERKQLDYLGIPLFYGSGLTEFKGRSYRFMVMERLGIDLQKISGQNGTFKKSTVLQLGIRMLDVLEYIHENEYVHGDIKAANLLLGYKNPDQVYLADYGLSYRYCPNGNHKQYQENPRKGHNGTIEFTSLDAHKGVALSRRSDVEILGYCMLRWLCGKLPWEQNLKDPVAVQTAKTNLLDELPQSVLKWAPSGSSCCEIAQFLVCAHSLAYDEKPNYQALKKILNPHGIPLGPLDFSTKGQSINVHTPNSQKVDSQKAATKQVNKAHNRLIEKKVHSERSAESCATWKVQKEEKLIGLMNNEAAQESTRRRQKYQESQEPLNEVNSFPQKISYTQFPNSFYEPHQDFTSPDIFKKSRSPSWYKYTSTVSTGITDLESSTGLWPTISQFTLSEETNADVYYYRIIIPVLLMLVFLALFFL

[41] = biological target: ZAP70 (human) (UniProt P43403)

Chain of CDK11B (human) (P21127 whole entry, looked up): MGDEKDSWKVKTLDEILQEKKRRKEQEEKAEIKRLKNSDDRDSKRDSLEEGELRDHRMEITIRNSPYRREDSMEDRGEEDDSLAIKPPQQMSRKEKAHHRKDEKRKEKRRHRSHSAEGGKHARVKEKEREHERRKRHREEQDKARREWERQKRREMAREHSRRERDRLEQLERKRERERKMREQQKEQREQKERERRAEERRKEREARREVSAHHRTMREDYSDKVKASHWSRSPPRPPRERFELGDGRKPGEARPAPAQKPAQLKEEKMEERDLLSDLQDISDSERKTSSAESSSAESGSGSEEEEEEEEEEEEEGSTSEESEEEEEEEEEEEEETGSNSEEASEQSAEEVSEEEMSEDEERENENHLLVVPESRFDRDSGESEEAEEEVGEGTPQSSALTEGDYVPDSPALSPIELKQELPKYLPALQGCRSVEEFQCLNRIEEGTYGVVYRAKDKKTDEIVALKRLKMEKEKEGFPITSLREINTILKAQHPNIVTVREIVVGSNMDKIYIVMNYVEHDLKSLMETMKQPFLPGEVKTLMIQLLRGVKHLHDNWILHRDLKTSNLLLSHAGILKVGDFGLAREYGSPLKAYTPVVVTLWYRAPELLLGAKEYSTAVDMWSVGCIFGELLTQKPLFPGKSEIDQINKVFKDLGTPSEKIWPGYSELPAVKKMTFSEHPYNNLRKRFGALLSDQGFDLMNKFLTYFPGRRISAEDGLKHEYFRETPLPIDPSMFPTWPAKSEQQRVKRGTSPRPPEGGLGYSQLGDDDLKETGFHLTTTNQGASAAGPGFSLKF

For `COc1ccc(-c2ccc3c(N4CCOCC4)nc(N4C[C@@H](C)O[C@@H](C)C4)nc3n2)cc1CO`, the kinase still bound, per cent of control [1] was 70%, the kinase still bound, per cent of control [2] was 86% and the kinase still bound, per cent of control [3] was 87%. The per cent of control [4] was 100%, the per cent of control [5] was 80% and the kinase still bound, per cent of control [6] was 100%. For the same compound, the kinase still bound, per cent of control [7] was 86%, the kinase still bound, per cent of control [8] was 89% and the kinase still bound, per cent of control [9] was 71%. It also gave a kinase still bound, per cent of control [10] of 98%, a kinase still bound, per cent of control [11] of 100% and a kinase still bound, per cent of control [12] of 94%. For the same compound, the kinase still bound, per cent of control [13] was 93%, the kinase still bound, per cent of control [14] was 98% and the kinase still bound, per cent of control [15] was 100%. The kinase still bound, per cent of control [16] was 100%, the kinase still bound, per cent of control [17] was 71% and the kinase still bound, per cent of control [18] was 92%. For the same compound, the kinase still bound, per cent of control [19] was 77%, the kinase still bound, per cent of control [20] was 97% and the kinase still bound, per cent of control [21] was 100%. It also gave a kinase still bound, per cent of control [22] of 100%, a kinase still bound, per cent of control [23] of 92% and a kinase still bound, per cent of control [24] of 100%. For the same compound, the kinase still bound, per cent of control [25] was 89%, the kinase still bound, per cent of control [26] was 100% and the kinase still bound, per cent of control [27] was 100%. The kinase still bound, per cent of control [28] was 100%, the kinase still bound, per cent of control [29] was 87% and the kinase still bound, per cent of control [30] was 100%. The kinase still bound, per cent of control [31] was 100%, the kinase still bound, per cent of control [32] was 82% and the kinase still bound, per cent of control [33] was 100%. For the same compound, the kinase still bound, per cent of control [34] was 91%, the kinase still bound, per cent of control [35] was 75% and the kinase still bound, per cent of control [36] was 100%. It also gave a kinase still bound, per cent of control [37] of 92%, a kinase still bound, per cent of control [38] of 100% and a kinase still bound, per cent of control [39] of 79%. The kinase still bound, per cent of control [40] was 87% and the kinase still bound, per cent of control [41] was 83%.

From the kinase profiling compilation of Christmann-Franck et al. (2016)
